Experimental data published in PubChem BioAssay (NCI).
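Step 1: Grow cells in 96-well plates. Step 2: Expose to compound for 48 hours at 5 concentrations. Step 3: Interpolate endpoints linearly; if unreached, use highest concentration. The concentration for full growth arrest is given as TGI.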

Tests used:
Assay in all cases: NCI anticancer screen, dose series, 48 h
DU-145 prostate = tested on: DU-145 prostate
SW-620 colon = tested on: SW-620 colon
HCC-2998 colon = tested on: HCC-2998 colon
SNB-19 CNS = tested on: SNB-19 CNS
RXF 393 renal = tested on: RXF 393 renal
NCI-H522 lung = tested on: NCI-H522 lung
U251 CNS = tested on: U251 CNS
UACC-257 melanoma = tested on: UACC-257 melanoma
SR leukemia = tested on: SR leukemia
OVCAR-8 ovarian = tested on: OVCAR-8 ovarian
SK-MEL-2 melanoma = tested on: SK-MEL-2 melanoma
NCI-H23 lung = tested on: NCI-H23 lung
NCI/ADR-RES ovarian = tested on: NCI/ADR-RES ovarian
SK-OV-3 ovarian = tested on: SK-OV-3 ovarian
MDA-MB-231 breast = tested on: MDA-MB-231 breast
NCI-H460 lung = tested on: NCI-H460 lung

Structure (SMILES): COC(=O)C1C2OC(C)(C)OC2CN1S(=O)(=O)c1ccc(C)cc1 (configuration not stated)
- TGI (DU-145 prostate): > 100 µM
- TGI (SW-620 colon): > 100 µM
- TGI (HCC-2998 colon): > 100 µM
- TGI (SNB-19 CNS): > 100 µM
- TGI (RXF 393 renal): > 100 µM
- TGI (NCI-H522 lung): > 100 µM
- TGI (U251 CNS): > 100 µM
- TGI (UACC-257 melanoma): > 100 µM
- TGI (SR leukemia): > 100 µM
- TGI (OVCAR-8 ovarian): > 100 µM
- TGI (SK-MEL-2 melanoma): > 100 µM
- TGI (NCI-H23 lung): > 100 µM
- TGI (NCI/ADR-RES ovarian): > 100 µM
- TGI (SK-OV-3 ovarian): > 100 µM
- TGI (MDA-MB-231 breast): > 100 µM
- TGI (NCI-H460 lung): > 100 µM

Structure (SMILES): C[C@]12CC[C@H]3[C@@H](CCC4=CC(=O)CC[C@@H]43)[C@@H]1CC[C@]2(O)C(N)=O
- TGI (DU-145 prostate): > 100 µM
- TGI (SW-620 colon): > 100 µM
- TGI (HCC-2998 colon): > 100 µM
- TGI (SNB-19 CNS): > 100 µM
- TGI (RXF 393 renal): > 100 µM
- TGI (NCI-H522 lung): > 100 µM
- TGI (U251 CNS): > 100 µM
- TGI (UACC-257 melanoma): > 100 µM
- TGI (SR leukemia): > 100 µM
- TGI (OVCAR-8 ovarian): > 100 µM
- TGI (SK-MEL-2 melanoma): > 100 µM
- TGI (NCI-H23 lung): > 100 µM
- TGI (NCI/ADR-RES ovarian): > 100 µM
- TGI (SK-OV-3 ovarian): > 100 µM
- TGI (MDA-MB-231 breast): > 100 µM
- TGI (NCI-H460 lung): > 100 µM

Structure (SMILES): CCOC(=O)/C(C#N)=C/Nc1c(C)n(C)n(-c2ccccc2)c1=O
- TGI (DU-145 prostate): > 100 µM
- TGI (SW-620 colon): > 100 µM
- TGI (HCC-2998 colon): > 100 µM
- TGI (RXF 393 renal): > 100 µM
- TGI (NCI-H522 lung): > 100 µM
- TGI (U251 CNS): > 100 µM
- TGI (UACC-257 melanoma): > 100 µM
- TGI (SR leukemia): > 100 µM
- TGI (OVCAR-8 ovarian): > 100 µM
- TGI (SK-MEL-2 melanoma): > 100 µM
- TGI (NCI-H23 lung): > 100 µM
- TGI (NCI/ADR-RES ovarian): > 100 µM
- TGI (SK-OV-3 ovarian): > 100 µM
- TGI (MDA-MB-231 breast): > 100 µM

Structure (SMILES): COc1nn(Cc2ccccn2)c2ccc([N+](=O)[O-])cc12
- TGI (DU-145 prostate): > 100 µM
- TGI (SW-620 colon): > 100 µM
- TGI (HCC-2998 colon): > 100 µM
- TGI (SNB-19 CNS): > 100 µM
- TGI (RXF 393 renal): > 100 µM
- TGI (NCI-H522 lung): > 100 µM
- TGI (U251 CNS): > 100 µM
- TGI (UACC-257 melanoma): > 100 µM
- TGI (SR leukemia): 98.4 µM
- TGI (OVCAR-8 ovarian): > 100 µM
- TGI (SK-MEL-2 melanoma): > 100 µM
- TGI (NCI-H23 lung): > 100 µM
- TGI (NCI/ADR-RES ovarian): > 100 µM
- TGI (SK-OV-3 ovarian): > 100 µM
- TGI (MDA-MB-231 breast): > 100 µM
- TGI (NCI-H460 lung): > 100 µM

Structure (SMILES): O=S(=O)(O)CCSSCCS(=O)(=O)O
- TGI (DU-145 prostate): > 1000 µM
- TGI (SW-620 colon): > 1000 µM
- TGI (HCC-2998 colon): > 1000 µM
- TGI (SNB-19 CNS): > 1000 µM
- TGI (RXF 393 renal): > 1000 µM
- TGI (NCI-H522 lung): > 1000 µM
- TGI (U251 CNS): > 1000 µM
- TGI (UACC-257 melanoma): > 1000 µM
- TGI (SR leukemia): > 1000 µM
- TGI (OVCAR-8 ovarian): > 1000 µM
- TGI (SK-MEL-2 melanoma): > 1000 µM
- TGI (NCI-H23 lung): > 1000 µM
- TGI (NCI/ADR-RES ovarian): > 1000 µM
- TGI (SK-OV-3 ovarian): > 1000 µM
- TGI (MDA-MB-231 breast): > 1000 µM
- TGI (NCI-H460 lung): > 1000 µM

Structure (SMILES): O=c1[nH]c(=O)n(C/C=C/CO)nc1Br
- TGI (DU-145 prostate): > 100 µM
- TGI (SW-620 colon): > 100 µM
- TGI (HCC-2998 colon): > 100 µM
- TGI (SNB-19 CNS): > 100 µM
- TGI (RXF 393 renal): > 100 µM
- TGI (NCI-H522 lung): > 100 µM
- TGI (U251 CNS): > 100 µM
- TGI (UACC-257 melanoma): > 100 µM
- TGI (SR leukemia): > 100 µM
- TGI (OVCAR-8 ovarian): > 100 µM
- TGI (SK-MEL-2 melanoma): > 100 µM
- TGI (NCI-H23 lung): > 100 µM
- TGI (NCI/ADR-RES ovarian): > 100 µM
- TGI (MDA-MB-231 breast): > 100 µM
- TGI (NCI-H460 lung): > 100 µM

Structure (SMILES): CC(=O)OC1=NN=C2COC(c3ccccc3OC(C)=O)=NN2C1
- TGI (DU-145 prostate): > 50 µM
- TGI (SW-620 colon): > 50 µM
- TGI (HCC-2998 colon): > 50 µM
- TGI (SNB-19 CNS): > 50 µM
- TGI (RXF 393 renal): > 50 µM
- TGI (NCI-H522 lung): > 50 µM
- TGI (U251 CNS): > 50 µM
- TGI (UACC-257 melanoma): > 50 µM
- TGI (SR leukemia): > 50 µM
- TGI (SK-MEL-2 melanoma): > 50 µM
- TGI (NCI-H23 lung): > 50 µM
- TGI (NCI/ADR-RES ovarian): > 50 µM
- TGI (SK-OV-3 ovarian): > 50 µM
- TGI (MDA-MB-231 breast): > 50 µM
- TGI (NCI-H460 lung): > 50 µM

Structure (SMILES): C1C2CC3CC1CC(c1nn4c(C56CC7CC(CC(C7)C5)C6)nnc4s1)(C2)C3
- TGI (DU-145 prostate): > 100 µM
- TGI (SW-620 colon): > 100 µM
- TGI (HCC-2998 colon): > 100 µM
- TGI (SNB-19 CNS): > 100 µM
- TGI (RXF 393 renal): > 100 µM
- TGI (NCI-H522 lung): > 100 µM
- TGI (U251 CNS): > 100 µM
- TGI (SR leukemia): > 100 µM
- TGI (SK-MEL-2 melanoma): > 100 µM
- TGI (NCI-H23 lung): > 100 µM
- TGI (NCI/ADR-RES ovarian): > 100 µM
- TGI (SK-OV-3 ovarian): > 100 µM
- TGI (MDA-MB-231 breast): > 100 µM
- TGI (NCI-H460 lung): > 100 µM

Structure (SMILES): CSC1=N/C(=C\c2ccc(C)cc2)C(=O)N1
- TGI (DU-145 prostate): > 100 µM
- TGI (SW-620 colon): > 100 µM
- TGI (HCC-2998 colon): > 100 µM
- TGI (SNB-19 CNS): > 100 µM
- TGI (RXF 393 renal): 96.2 µM
- TGI (NCI-H522 lung): > 100 µM
- TGI (U251 CNS): > 100 µM
- TGI (UACC-257 melanoma): > 100 µM
- TGI (SR leukemia): > 100 µM
- TGI (OVCAR-8 ovarian): > 100 µM
- TGI (SK-MEL-2 melanoma): > 100 µM
- TGI (NCI-H23 lung): > 100 µM
- TGI (NCI/ADR-RES ovarian): > 100 µM
- TGI (SK-OV-3 ovarian): > 100 µM
- TGI (MDA-MB-231 breast): > 100 µM

Structure (SMILES): Cc1c(N=Nc2ccccc2)c(-c2ccccc2)n(C2OC(CO)C(O)C(O)C2O)c(=S)c1C#N (configuration not stated)
- TGI (DU-145 prostate): 41.7 µM
- TGI (SW-620 colon): 24.2 µM
- TGI (HCC-2998 colon): 30.9 µM
- TGI (SNB-19 CNS): 27.8 µM
- TGI (RXF 393 renal): 10.3 µM
- TGI (NCI-H522 lung): 14.1 µM
- TGI (U251 CNS): 17.7 µM
- TGI (SR leukemia): > 100 µM
- TGI (OVCAR-8 ovarian): > 100 µM
- TGI (SK-MEL-2 melanoma): 21.8 µM
- TGI (NCI-H23 lung): 16.2 µM
- TGI (NCI/ADR-RES ovarian): 46.6 µM
- TGI (SK-OV-3 ovarian): 23 µM
- TGI (MDA-MB-231 breast): 44.4 µM
- TGI (NCI-H460 lung): 97.6 µM

Structure (SMILES): COC(=O)/C(C)=N/NC(=S)SC
- TGI (DU-145 prostate): > 100 µM
- TGI (SW-620 colon): > 100 µM
- TGI (HCC-2998 colon): > 100 µM
- TGI (RXF 393 renal): 97 µM
- TGI (NCI-H522 lung): 81.8 µM
- TGI (U251 CNS): > 100 µM
- TGI (UACC-257 melanoma): > 100 µM
- TGI (SR leukemia): > 100 µM
- TGI (OVCAR-8 ovarian): > 100 µM
- TGI (SK-MEL-2 melanoma): > 100 µM
- TGI (NCI-H23 lung): > 100 µM
- TGI (NCI/ADR-RES ovarian): > 100 µM
- TGI (SK-OV-3 ovarian): > 100 µM
- TGI (MDA-MB-231 breast): > 100 µM
- TGI (NCI-H460 lung): > 100 µM

Structure (SMILES): CC12Nc3c(Cl)cc(Cl)cc3N1C(=O)c1ccccc12 (configuration not stated)
- TGI (DU-145 prostate): > 100 µM
- TGI (SW-620 colon): > 100 µM
- TGI (HCC-2998 colon): > 100 µM
- TGI (RXF 393 renal): > 100 µM
- TGI (NCI-H522 lung): > 100 µM
- TGI (U251 CNS): > 100 µM
- TGI (UACC-257 melanoma): > 100 µM
- TGI (SR leukemia): > 100 µM
- TGI (OVCAR-8 ovarian): > 100 µM
- TGI (SK-MEL-2 melanoma): > 100 µM
- TGI (NCI-H23 lung): > 100 µM
- TGI (NCI/ADR-RES ovarian): > 100 µM
- TGI (SK-OV-3 ovarian): > 100 µM
- TGI (MDA-MB-231 breast): > 100 µM
- TGI (NCI-H460 lung): > 100 µM

Structure (SMILES): C=CC(C)(C)n1cc(C2=C3OC(=O)C(c4cn(C(C)(C)C=C)c5ccccc45)=C3OC2=O)c2ccccc21
- TGI (DU-145 prostate): > 100 µM
- TGI (SW-620 colon): > 100 µM
- TGI (HCC-2998 colon): > 100 µM
- TGI (SNB-19 CNS): > 100 µM
- TGI (RXF 393 renal): > 100 µM
- TGI (NCI-H522 lung): > 100 µM
- TGI (U251 CNS): > 100 µM
- TGI (UACC-257 melanoma): > 100 µM
- TGI (SR leukemia): > 100 µM
- TGI (OVCAR-8 ovarian): > 100 µM
- TGI (SK-MEL-2 melanoma): > 100 µM
- TGI (NCI-H23 lung): > 100 µM
- TGI (NCI/ADR-RES ovarian): > 100 µM
- TGI (MDA-MB-231 breast): > 100 µM
- TGI (NCI-H460 lung): > 100 µM
